Data as given in ChEMBL document CHEMBL1201862, “PubChem BioAssay data set” (2004).
The source made the active and inactive calls.

Assays:
[1] = molecular target: Alkaline phosphatase, placental type (Homo sapiens, UniProt P05187); assay: PLAP enzyme inhibitors, confirmation, biochemical, luminescence (AID 1512); format: functional
[2] = molecular target: 72 kDa type IV collagenase (Homo sapiens, UniProt P08253); assay: Dose Response validation of uHTS RPN11 inhibitor hits using a MMP-2 Fluorescence assay.; format: functional
Beta-galactosidase [3] = molecular target: T1, Beta-galactosidase (Escherichia coli, UniProt Q8VNN2); assay: PubChem AID 485352; format: functional
[4] = inhibitors of intracellular T. cruzi replication, confirmation, NIH3T3 host cells, beta-gal luminescence (AID 2044); format: functional, cell-based;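 also: intracellular parasites grown in NIH/3T3 mouse fibroblasts as host cells; luminescent beta-galactosidase reporter signal from transgenic T. cruzi replicating inside host cells; inhibitors lower the luminescence signal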
[5] = molecular target: T2, Type-1 angiotensin II receptor (Homo sapiens, UniProt P30556); assay: AT1 receptor antagonists, dose response, selectivity assay for APJ receptor antagonist project, cell-based, uHTS hits (AID 463214); format: functional;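 also: antagonist potency against angiotensin II stimulated AT1 response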
T2 sequence (P30556 whole entry): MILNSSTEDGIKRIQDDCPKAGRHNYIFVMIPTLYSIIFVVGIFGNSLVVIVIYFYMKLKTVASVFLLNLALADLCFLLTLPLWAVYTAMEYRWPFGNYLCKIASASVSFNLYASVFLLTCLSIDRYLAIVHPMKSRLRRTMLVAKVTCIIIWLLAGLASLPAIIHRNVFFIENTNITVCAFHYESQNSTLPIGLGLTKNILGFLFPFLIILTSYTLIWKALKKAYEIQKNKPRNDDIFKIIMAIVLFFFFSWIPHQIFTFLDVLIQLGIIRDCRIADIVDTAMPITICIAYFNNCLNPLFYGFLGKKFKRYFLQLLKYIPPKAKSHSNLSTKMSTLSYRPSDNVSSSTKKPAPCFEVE

Mu-type opioid receptor [6] = molecular target: T3, Mu-type opioid receptor (Homo sapiens, UniProt P35372); assay: HTS Image-Based Screen for Agonists of the MOR Receptor. [Related pubchem assays (depositor defined):AID1777, AID1785, AID1786, AID2133]; format: functional
[7] = reduction of Shn3 3'UTR firefly luciferase signal, dose response, Schnurri-3 inhibitor project, cell-based, Clone20 osteoblasts, cherry-pick, set 2 (AID 720490); format: functional;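 also: actives lower the luminescence signal as inhibitors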
Cytochrome P450 2C9 = Cytochrome P450 2C9 (Homo sapiens, UniProt P11712)
[8] = molecular target: T4, Kappa-type opioid receptor (Homo sapiens, UniProt P41145); format: functional
[9] = Shn3 3'UTR reporter inhibitors, dose response, cell-based, Clone20 osteoblasts, firefly luciferase, cherry-picked (AID 624132); format: functional;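 also: firefly luciferase luminescence from reporter carrying the Shn3 3'UTR in osteoblasts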
[10] = molecular target: 26S proteasome non-ATPase regulatory subunit 14 (Homo sapiens, UniProt O00487); assay: inhibition of proteasome subunit RPN11 – biochemical, fluorescence polarization, uHTS hits, confirmation (AID 602368); format: functional
[11] = molecular target: T4, Kappa-type opioid receptor; format: functional; remark: listed apart in the source
[12] = cytotoxicity toward NIH3T3 fibroblasts, dose response, counter-screen, cell-based, ATP luminescence, mouse fibroblasts (AID 2010); format: functional;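 also: cells exposed to compound for about 90 hours before reading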
Beta-galactosidase [13] = molecular target: T1, Beta-galactosidase; format: functional
[14] = HepG2 cell cytotoxicity, dose response, cytotoxicity control for Shn3 inhibitor project, CellTiter-Glo, cherry-picked (AID 624134); format: functional, cell-based
Prothrombin = Prothrombin (Bos taurus, UniProt P00735); assay: thrombin inhibition, dose response, biochemical, fluorescence polarization, uHTS hits (AID 602369); format: functional
[15] = molecular target: T5, Delta-type opioid receptor (Homo sapiens, UniProt P41143); assay: HTS Image-Based Screen for Agonists of the DOR Receptor. [Related pubchem assays (depositor defined):AID1777, AID1786, AID2133]; format: functional
[16] = molecular target: T5, Delta-type opioid receptor; assay: HTS Image-Based Screen for Antagonists of the DOR Receptor. [Related pubchem assays (depositor defined):AID1777, AID1785, AID1786, AID2133]; format: functional
Beta-galactosidase [17] = molecular target: T1, Beta-galactosidase; assay: beta-galactosidase enzyme inhibitors and activators, dose response, artefact control for CCR6 antagonist project, biochemical, E. coli enzyme, set 3 (AID 504712); format: functional
[18] = molecular target: Peroxisome proliferator-activated receptor gamma/Nuclear receptor corepressor 2 (Homo sapiens, UniProt P37231+Q9Y618); format: functional
[19] = molecular target: Photoreceptor-specific nuclear receptor (Homo sapiens, UniProt Q9Y5X4); format: functional;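 also: potency for compounds that break the NR2E3 corepressor complex and count as activators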
Troponin, cardiac muscle = Troponin, cardiac muscle (Homo sapiens, UniProt P19429+P45379+P63316); assay: Fluorescence-based biochemical high throughput dose response assay for activators of the calcium sensitivity of cardiac Regulated Thin Filaments (RTF). [Related pubchem assays (depositor defined):AID493008, AID493018, AID504382, AID504383]; format: protein-complex assay
[20] = Vero E6 cell cytotoxicity, dose response, cytotoxicity control for non-replicating M. tuberculosis project, secondary assay (AID 492998); format: functional, VeroE6; conditions: Vero C1008
[21] = tested on: Streptococcus sp. 'group A'; assay: growth inhibition of control SK(-) GAS strain, dose response, counter-screen for streptokinase expression inhibitor project, luminescence, kanamycin, BacTiterGlo, confirmation (AID 1900); format: functional, organism-based
[22] = molecular target: T6, Short transient receptor potential channel 4 (Mus musculus, UniProt Q9QUQ5); assay: mouse TRPC4 channel activators, dose response, cell-based, HEK293 TRPC4/mu-opioid, Fluo-4 calcium (AID 434937); format: functional
T6 sequence (Q9QUQ5 whole entry): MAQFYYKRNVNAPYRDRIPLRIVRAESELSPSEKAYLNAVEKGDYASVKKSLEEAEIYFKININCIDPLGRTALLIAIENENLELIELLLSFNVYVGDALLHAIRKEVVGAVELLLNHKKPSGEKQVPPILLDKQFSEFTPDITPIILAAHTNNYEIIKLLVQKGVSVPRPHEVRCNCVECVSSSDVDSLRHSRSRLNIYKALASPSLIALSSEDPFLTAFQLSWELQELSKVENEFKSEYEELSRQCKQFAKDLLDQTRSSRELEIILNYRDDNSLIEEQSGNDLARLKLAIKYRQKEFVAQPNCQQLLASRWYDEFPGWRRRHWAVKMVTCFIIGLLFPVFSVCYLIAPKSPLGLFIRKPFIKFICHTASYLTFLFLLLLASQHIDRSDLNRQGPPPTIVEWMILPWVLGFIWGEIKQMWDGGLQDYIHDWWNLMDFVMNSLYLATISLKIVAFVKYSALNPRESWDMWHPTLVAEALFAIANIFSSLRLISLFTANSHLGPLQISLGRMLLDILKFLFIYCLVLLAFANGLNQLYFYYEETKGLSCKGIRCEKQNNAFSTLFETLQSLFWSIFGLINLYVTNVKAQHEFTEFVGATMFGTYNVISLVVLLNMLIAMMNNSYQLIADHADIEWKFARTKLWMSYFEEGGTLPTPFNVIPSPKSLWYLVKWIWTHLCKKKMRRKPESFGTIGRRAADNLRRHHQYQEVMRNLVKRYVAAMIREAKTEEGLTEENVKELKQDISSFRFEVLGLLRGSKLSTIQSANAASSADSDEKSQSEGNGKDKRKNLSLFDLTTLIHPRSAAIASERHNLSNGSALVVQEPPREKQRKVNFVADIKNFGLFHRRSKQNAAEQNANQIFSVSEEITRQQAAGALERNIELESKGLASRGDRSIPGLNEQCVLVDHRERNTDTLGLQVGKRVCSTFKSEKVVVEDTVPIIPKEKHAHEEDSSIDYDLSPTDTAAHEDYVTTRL

[23] = molecular target: T7, Corticotropin-releasing factor receptor 2/Corticotropin-releasing factor-binding protein (Homo sapiens, UniProt P24387+Q13324); assay: activators of CRF receptor 2 with binding protein – uHTS hits, confirmation (AID 602473); format: functional; conditions: read-out: EC50_Mean
T7 sequence (Q13324 whole entry): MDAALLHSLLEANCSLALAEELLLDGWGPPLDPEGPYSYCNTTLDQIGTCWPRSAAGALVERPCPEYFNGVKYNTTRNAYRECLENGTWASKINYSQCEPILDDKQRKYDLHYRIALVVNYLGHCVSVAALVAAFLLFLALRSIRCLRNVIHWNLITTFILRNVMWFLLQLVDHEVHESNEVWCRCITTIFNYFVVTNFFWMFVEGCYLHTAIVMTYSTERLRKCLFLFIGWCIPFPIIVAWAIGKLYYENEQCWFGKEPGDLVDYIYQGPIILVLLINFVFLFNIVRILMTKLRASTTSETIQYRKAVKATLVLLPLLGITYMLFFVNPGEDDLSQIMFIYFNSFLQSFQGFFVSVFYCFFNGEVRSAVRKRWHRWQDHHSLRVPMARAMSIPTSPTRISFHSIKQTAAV
T7 sequence (P24387 whole entry): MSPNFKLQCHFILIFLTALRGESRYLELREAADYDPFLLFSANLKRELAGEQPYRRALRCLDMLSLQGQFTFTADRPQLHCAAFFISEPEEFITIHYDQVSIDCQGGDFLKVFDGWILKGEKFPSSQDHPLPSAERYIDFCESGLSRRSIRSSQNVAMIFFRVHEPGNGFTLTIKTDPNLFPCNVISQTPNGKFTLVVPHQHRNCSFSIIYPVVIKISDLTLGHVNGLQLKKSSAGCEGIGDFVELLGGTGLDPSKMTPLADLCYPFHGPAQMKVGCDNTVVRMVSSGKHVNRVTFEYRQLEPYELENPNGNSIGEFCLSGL

[24] = HepG2 cell cytotoxicity, dose response, cytotoxicity control for non-replicating M. tuberculosis project (AID 489018); format: functional; conditions: Mycobacterium tuberculosis
Vero = assay: cells; format: functional; conditions: Chlorocebus sabaeus
[25] = THP-1 cell cytotoxicity, dose response, cytotoxicity control for non-replicating M. tuberculosis project (AID 489025); format: functional
Streptococcus = assay: Group A Streptococcus viability loss, dose response, counter-screen for streptokinase expression inhibitor project, luminescence, BacTiterGlo (AID 1915); format: functional, organism-based;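 also: potency for reduction of bacterial viability or growth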
cells = format: functional
Streptokinase A = molecular target: T8, Streptokinase A (Streptococcus pyogenes serotype M1, UniProt P10520); assay: S. pyogenes streptokinase expression inhibitors, potency, dose response, plasminogen activation absorbance, OD405 (AID 1914); format: functional, Streptococcus pyogenes M1 GAS;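 also: secreted streptokinase activity via plasminogen activation per viability signal from cell pellet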
T8 sequence (P10520 whole entry): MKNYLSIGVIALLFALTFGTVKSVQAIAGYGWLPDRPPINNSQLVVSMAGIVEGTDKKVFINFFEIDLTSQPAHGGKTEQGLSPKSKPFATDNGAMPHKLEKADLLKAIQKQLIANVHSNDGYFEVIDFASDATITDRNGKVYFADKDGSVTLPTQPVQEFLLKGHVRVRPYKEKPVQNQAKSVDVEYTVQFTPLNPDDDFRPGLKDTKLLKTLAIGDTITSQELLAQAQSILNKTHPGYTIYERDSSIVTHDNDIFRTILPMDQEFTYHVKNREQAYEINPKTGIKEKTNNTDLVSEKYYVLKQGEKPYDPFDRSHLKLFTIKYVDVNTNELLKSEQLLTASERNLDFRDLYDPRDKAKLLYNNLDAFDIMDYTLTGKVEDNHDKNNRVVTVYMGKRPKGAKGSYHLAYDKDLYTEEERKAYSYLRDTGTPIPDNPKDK

[26] = molecular target: T4, Kappa-type opioid receptor; assay: SAR analysis of small molecule antagonists of the kappa opioid receptor via a luminescent beta-arrestin assay - Set 3. [Related pubchem assays (depositor defined):AID1777, AID1778, AID1785, AID1786, AID1966, AID2133, AID2136, AID2285, AID2495]; format: functional
[27] = molecular target: T4, Kappa-type opioid receptor; assay: SAR analysis of Antagonists of the Kappa Opioid Receptor (KOR) using an Image-Based Assay - Set 3. [Related pubchem assays (depositor defined):AID1777, AID1785]; format: functional
Mu-type opioid receptor [28] = molecular target: T3, Mu-type opioid receptor; assay: SAR Analysis of Antagonists of the MOR Receptor using an Image-Based Assay - Set 3. [Related pubchem assays (depositor defined):AID1777, AID1785, AID1786, AID1966, AID2133, AID2136, AID2284, AID2285, AID2420]; format: functional
[29] = molecular target: T5, Delta-type opioid receptor; assay: SAR Analysis of Antagonists of the DOR Receptor using an Image-Based Assay - Set 3. [Related pubchem assays (depositor defined):AID1777, AID1785]; format: functional

T4 sequence (P41145 whole entry): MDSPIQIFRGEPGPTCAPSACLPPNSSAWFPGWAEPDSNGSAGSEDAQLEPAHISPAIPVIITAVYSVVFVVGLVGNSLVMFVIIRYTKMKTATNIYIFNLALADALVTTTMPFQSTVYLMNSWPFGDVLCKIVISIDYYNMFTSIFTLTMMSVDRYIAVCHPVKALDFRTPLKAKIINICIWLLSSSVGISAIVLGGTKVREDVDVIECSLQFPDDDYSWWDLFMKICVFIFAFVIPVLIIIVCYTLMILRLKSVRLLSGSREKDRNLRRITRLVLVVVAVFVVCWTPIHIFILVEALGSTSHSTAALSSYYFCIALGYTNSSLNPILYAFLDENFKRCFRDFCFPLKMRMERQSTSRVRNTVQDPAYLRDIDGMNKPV
T5 sequence (P41143 whole entry): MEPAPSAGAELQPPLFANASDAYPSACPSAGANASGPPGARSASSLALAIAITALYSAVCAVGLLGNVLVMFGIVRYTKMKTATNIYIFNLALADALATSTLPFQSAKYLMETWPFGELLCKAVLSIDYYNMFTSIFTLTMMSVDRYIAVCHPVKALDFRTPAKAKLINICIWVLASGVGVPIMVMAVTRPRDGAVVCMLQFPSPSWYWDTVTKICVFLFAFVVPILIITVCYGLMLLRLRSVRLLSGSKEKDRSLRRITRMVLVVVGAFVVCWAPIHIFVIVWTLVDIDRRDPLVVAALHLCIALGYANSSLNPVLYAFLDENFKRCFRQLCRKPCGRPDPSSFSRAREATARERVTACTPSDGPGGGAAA
T3 sequence (P35372 whole entry): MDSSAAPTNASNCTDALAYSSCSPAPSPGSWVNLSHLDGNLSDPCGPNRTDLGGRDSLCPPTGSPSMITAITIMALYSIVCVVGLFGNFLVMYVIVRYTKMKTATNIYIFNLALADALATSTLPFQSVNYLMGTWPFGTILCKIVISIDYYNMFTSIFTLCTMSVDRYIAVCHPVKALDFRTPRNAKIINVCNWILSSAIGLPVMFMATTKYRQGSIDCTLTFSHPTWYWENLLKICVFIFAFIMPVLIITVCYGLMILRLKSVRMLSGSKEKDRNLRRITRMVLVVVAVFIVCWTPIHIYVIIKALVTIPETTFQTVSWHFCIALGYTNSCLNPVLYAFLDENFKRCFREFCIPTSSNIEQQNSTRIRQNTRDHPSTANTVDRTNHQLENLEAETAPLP
T1 sequence (Q8VNN2 whole entry): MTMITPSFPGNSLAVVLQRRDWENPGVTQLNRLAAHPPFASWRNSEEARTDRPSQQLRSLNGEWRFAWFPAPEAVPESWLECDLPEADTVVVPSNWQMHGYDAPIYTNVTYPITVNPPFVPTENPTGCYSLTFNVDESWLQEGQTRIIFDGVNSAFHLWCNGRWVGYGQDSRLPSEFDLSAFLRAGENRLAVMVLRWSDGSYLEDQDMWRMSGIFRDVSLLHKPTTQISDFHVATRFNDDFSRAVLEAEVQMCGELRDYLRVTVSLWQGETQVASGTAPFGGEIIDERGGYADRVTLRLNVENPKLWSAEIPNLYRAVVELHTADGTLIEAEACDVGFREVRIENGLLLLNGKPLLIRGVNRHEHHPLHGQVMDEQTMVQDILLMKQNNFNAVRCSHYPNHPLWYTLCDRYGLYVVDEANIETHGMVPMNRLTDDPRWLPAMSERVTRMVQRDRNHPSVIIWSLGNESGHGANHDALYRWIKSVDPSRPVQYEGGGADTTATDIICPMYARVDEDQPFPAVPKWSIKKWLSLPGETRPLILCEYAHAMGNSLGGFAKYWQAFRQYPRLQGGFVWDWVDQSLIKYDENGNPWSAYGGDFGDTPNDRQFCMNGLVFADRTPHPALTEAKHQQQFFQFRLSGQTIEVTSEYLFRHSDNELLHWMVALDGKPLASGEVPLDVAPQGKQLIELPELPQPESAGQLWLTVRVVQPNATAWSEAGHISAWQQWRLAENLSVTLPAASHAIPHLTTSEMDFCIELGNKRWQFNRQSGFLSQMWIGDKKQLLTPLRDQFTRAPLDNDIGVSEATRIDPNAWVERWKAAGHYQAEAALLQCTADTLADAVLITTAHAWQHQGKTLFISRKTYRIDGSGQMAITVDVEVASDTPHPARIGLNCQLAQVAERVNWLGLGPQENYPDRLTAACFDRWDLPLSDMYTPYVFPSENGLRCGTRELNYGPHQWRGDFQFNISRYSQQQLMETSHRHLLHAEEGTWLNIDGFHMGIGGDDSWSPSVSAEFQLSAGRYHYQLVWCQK
Sequence of 26S proteasome non-ATPase regulatory subunit 14 (O00487 whole entry): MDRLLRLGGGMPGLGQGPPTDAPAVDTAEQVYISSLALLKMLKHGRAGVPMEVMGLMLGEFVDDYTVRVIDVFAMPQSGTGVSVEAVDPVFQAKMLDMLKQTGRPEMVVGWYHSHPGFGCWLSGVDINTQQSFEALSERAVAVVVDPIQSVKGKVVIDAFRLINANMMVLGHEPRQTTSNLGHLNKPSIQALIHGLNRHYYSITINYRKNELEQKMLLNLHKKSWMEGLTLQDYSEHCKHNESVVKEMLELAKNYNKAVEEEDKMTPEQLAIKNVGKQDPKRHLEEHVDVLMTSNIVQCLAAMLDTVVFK
Sequence of Alkaline phosphatase, placental type (P05187 whole entry): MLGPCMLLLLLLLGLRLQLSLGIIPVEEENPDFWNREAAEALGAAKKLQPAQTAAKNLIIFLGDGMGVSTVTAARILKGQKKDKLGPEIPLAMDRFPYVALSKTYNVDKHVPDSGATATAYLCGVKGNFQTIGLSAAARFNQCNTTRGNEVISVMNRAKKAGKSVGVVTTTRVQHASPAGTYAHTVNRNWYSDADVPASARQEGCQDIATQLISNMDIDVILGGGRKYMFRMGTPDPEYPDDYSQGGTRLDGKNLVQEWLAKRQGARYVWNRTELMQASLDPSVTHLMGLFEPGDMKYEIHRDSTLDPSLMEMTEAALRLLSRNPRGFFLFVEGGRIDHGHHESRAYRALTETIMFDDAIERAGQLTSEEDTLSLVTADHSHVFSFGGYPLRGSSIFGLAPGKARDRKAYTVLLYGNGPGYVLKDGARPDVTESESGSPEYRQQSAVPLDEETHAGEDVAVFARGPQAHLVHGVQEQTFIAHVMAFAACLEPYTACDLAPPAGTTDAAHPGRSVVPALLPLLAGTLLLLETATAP
Sequence of 72 kDa type IV collagenase (P08253 whole entry): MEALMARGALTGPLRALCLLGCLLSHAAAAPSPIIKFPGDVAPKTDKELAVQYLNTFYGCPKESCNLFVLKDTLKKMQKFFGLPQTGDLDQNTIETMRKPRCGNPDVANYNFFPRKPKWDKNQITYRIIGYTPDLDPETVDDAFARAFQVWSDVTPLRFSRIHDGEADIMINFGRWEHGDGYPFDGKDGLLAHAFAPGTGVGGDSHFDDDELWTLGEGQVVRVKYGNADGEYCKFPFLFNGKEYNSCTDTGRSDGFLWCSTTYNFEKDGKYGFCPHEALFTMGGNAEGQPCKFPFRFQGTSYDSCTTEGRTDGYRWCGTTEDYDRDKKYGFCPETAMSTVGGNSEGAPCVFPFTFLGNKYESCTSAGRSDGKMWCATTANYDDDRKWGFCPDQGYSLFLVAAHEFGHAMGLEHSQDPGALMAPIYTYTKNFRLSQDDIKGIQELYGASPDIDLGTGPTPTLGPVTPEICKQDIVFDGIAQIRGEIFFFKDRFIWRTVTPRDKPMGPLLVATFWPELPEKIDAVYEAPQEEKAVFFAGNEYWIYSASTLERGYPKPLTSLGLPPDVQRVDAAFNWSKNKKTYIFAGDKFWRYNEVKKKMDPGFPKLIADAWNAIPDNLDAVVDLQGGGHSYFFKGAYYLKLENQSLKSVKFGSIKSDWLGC
Sequence of Cytochrome P450 2C9 (P11712 whole entry): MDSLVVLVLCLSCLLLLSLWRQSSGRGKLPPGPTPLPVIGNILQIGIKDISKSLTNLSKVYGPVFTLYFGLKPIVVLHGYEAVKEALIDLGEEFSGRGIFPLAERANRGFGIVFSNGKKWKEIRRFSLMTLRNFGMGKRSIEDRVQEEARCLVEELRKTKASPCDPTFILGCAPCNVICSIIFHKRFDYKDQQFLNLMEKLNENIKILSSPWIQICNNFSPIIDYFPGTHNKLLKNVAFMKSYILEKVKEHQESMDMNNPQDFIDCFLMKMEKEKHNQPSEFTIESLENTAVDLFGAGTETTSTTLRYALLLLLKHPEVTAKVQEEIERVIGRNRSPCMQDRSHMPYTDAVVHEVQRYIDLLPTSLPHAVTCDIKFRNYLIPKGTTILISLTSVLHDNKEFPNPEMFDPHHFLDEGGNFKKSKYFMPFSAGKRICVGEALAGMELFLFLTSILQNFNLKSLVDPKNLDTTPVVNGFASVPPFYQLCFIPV
Sequence of Photoreceptor-specific nuclear receptor (Q9Y5X4 whole entry): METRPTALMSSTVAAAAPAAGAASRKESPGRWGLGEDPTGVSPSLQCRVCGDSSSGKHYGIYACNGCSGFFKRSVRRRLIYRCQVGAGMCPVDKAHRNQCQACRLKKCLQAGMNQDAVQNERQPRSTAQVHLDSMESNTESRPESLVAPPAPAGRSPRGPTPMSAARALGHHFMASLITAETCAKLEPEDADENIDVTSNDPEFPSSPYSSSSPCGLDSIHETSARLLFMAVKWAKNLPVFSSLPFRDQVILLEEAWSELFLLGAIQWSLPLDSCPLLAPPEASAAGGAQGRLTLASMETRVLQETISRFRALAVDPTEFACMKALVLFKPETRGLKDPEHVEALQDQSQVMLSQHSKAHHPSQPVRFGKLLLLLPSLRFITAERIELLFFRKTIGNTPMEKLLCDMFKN

CC(=O)NNc1ncnc2c1cnn2-c1ccc(C)cc1
IC50 [1]: > 100 µM (inactive)

Cc1cccc(CSc2cccc3cccnc23)c1
IC50 [2]: > 100 µM (inactive)
EC50 (Beta-galactosidase [3]): > 40 µM (inactive)
EC50 [4]: 0.307 µM (active)
IC50 [5]: 10.1 µM (active)
EC50 (Mu-type opioid receptor [6]): > 32 µM (inactive)
AC50 [7]: 7.99 µM (active)
AC50 (Cytochrome P450 2C9): inconclusive
IC50 [8]: > 32 µM
AC50 [9]: 2.54 µM (active)
IC50 [10]: 21.5 µM (active)
IC50 [11]: 8.68 µM (active)
EC50 [12]: 9.65 µM (active)
EC50 (Beta-galactosidase [13]): > 31.5 µM (inactive)
AC50 [14]: > 70 µM (inactive)
IC50 (Prothrombin): > 100 µM (inactive)
EC50 [15]: > 32 µM (inactive)
IC50 [16]: > 32 µM (inactive)

CCN(CC(=O)NC(C)(C)C)Cc1nc(O)c2cc(Br)cc(Br)c2n1
IC50 (Beta-galactosidase [17]): > 66.6 µM (inactive)
IC50 [18]: 15 µM (not active)
IC50 [19]: > 39.8 µM (not active)

N=C1c2ccccc2CN1c1ccc(S(=O)(=O)N2CCCCC2)cc1
EC50 (Troponin, cardiac muscle): > 71.5 µM (inactive)

CC1(C(=O)NC(=S)NNC(=O)c2ccncc2)CCCCC1
CC50 [20]: 13.4 µM (active)
EC50 [21]: 1.59 µM (active)
EC50 [22]: 11.9 µM (active)
EC50 [23]: 4.91 µM (active)
CC50 [24]: > 20 µM (active)
CC50 (Vero): > 25 µM (active)
CC50 [25]: 9 µM (active)
EC50 (Streptococcus): 21.1 µM (active)
IC50 (cells): 1.06 µM (active)
EC50 (Streptokinase A): > 150 µM (not active)

COc1ccc(S(=O)(=O)NCc2ccc(C(=O)NCCN(Cc3ccc(Br)cc3)C(C)C)cc2)cc1
IC50 [26]: 13.5 µM (inactive)
IC50 [27]: 1.38 µM (active)
IC50 (Mu-type opioid receptor [28]): > 32 µM (inactive)
IC50 [29]: > 32 µM (inactive)

Cc1cccc(S(=O)(=O)NCc2ccc(C(=O)NCCN(Cc3ccccc3)C(C)C)cc2)c1
IC50 [26]: 2.32 µM (active)
IC50 [27]: 0.872 µM (active)
IC50 (Mu-type opioid receptor [28]): 7.99 µM (active)
IC50 [29]: > 32 µM (inactive)
